“Also recorded” adds a separate entry of the source.

One experiment has as its system MRP-2. Put plainly: MRP-2 expression in large bowel of CD45Rbhi T cell transferred mice. It counts as in vivo. The note with it: sick mice after treatment, FIG. 11C. The method, then:
The upper third of the large bowel from these mice were excised, and fixed in OCT. Slides from these tissues were prepared and fluorescently probed for MRP-2 expression. […] Thus, in the efflux pathway for hepoxilin A3, MRP-2 is in fact activated during the disease phase and suppressed upon baicalein treatment

Experiment [1] concerns P. aeruginosa-induced PMN transepithelial migration, A549 cells. Put plainly: P. aeruginosa-induced PMN transepithelial migration across A549 cell monolayers. The note with it: A549 monolayers, FIG. 5C. The experiment is classed as cell-based, human. An excerpt:
It was further determined whether similar hepoxilin A3 recruitment of PMN by apically attached pathogens might occur at other mucosal surfaces. Pseudomonas aeruginosa is the most prominent bacterial spp. present during chronic infection in cystic fibrosis and chronic obstructive pulmonary disease patients and is accompanied by severe inflammation, including the emigration of PMN to the airway lumen (Pizurki et al., 2000; Jahn et al., 2000; Weiss, S. 1989). As a model for the airway epithelium the A549 cell line was used. This cell line is capable of forming a polarized barrier, and is widely employed as a model for the airway epithelial surface (Smart and Casale, 1994). […] Finally, the secretion of hepoxlin A3 in vitro was quantified using this A549 model system. For these experiments, A549 lung epithelial cells (ATTC) were grown in F12K media (Invitrogen) with 10% FBS, and maintained in culture similar to the T84 cell line. The wild type P. aeruginosa (PAO1) was used for infection of A549 after overnight aerobic growth (Luria broth) at 37° C.

Experiment [2] deals with intestinal inflammation (rectal prolapse). Put plainly: Intestinal inflammation in SCID mice induced by CD45RBHI T cell transfer. The experiment is classed as in vivo. The method, then:
The therapeutic benefits of baicalein on subsiding intestinal inflammation, which was induced in SCID mice by i.v. injection of CD4+ CD45RB HI T cells, was examined. For these experiments, spleens were collected from 6-12 week old donor mice (BALB/c) and splenocytes were isolated by mechanical homogenization of whole spleens. The CD4+ T cells were selected by positive selection. In brief, a cell suspension of pooled splenocytes from 4-5 donor mice was incubated with anti-CD4 (L3T4) antibody coated magnetic beads (DYNABEADS: Catalog # 114.05, Dynal, Lake Success, N.Y.) for 20-30 minutes at 4° C. and separated by magnetic cell sorting with a Dynal Magnetic Particle Concentrator (MPC). Cells were removed from the cell-bead complex with Dynal DETACHaBEAD, and isolated from beads using a Dynal MPC. The resulting CD4+ enriched population was >90% pure. The cell suspension was then incubated with Fc block (anti-CD32, PharMingen, 01241A) and labeled with anti-CD4-FITC (PharMingen, 9004D) and anti-CD45RB-PE (PharMingen, 01145A), for 30 minutes at 4° C. washed, and sorted using a FACSTAR (Becton Dickinson, San Jose, Calif.) cell sorter. Double positive cells (CD4+/CD45Rb+) were collected, selecting the cells that expressed high levels of CD45Rb (brightest 45%). The collected cell population was >90% pure and viable. Cells were then washed in cold […] buffered saline (PBS Sigma D8662) and resuspended in PBS. Balb/c SCID mice, aged 6-12 weeks, were injected intravenously with CD45RBHI Tcells in the tail vein.
Ten weeks post CD45RBHI T cell transfer, roughly 30% of SCID mice developed intestinal inflammation, characterized by mucin depletion, goblet cell loss, epithelial hyperplasia and finally rectal prolapse (FIG. 8). These mice were divided equally among treatment groups The first treatment group received buffer control alone (sterile Hanks Balanced Salts Solution (“HBSS”)) and the second and the third treatment groups received low (2 μM) and high (200 μM) doses of baicalein i.v., respectively, every other day along with a vehicle control. […]

Experiment [3] has as its system S. typhimurium-infected human intestinal xenografts. As to the kind of experiment: Histopathology of human intestinal xenografts infected with S. typhimurium. It counts as in vivo. The note with it: 1 μM in 100 μl intralumenally 2 hours prior to infection; xenografts in SCID mice; 15 hours after infection. The method, then:
(§1) Further, the effect of baicalein on S. typhimurium pathology in human intestinal xenografts was determined (Savidge et al., 1995) (FIG. 7). The human fetal intestinal xenograft model used in the present study has been previously described in detail (Savidge et al., 1995). Briefly, human fetal small intestine (n=3, gestational age 10-14weeks) was transplanted subcutaneously into C.B-17 severe-combined immunodeficient (SCID) mice. Xenografts were allowed to develop for a period between 10-20 weeks before use at which time the epithelium and underlying mucosa is fully differentiated (Savidge et al., 1995). Xenografts were infected with approximately 5×10^7 wild type S. typhimurium SL1344 in sterile HBSS(+) buffer in a 100 μl volume injected intralumenally by subcutaneous injection. Xenografts receiving the drug treatment were injected with 1 μM baicalein in a 100 μl volume 2 hours prior to infection with S. typhimurium (in the continued presence of 1 μM baicalein). Xenograft tissue was removed 15 hours after infection, extensively washed, and snap frozen in OCT compound.
A severe vascular disturbance was also noted. These outcomes are all consistent with the clinical manifestations observed from S. typhimurium infection in humans.
(A xenograft is tissue or cells of one species grown in another, often human tumour cells in immunodeficient mice.)

Another experiment concerns IL-8 production. As to the kind of experiment: IL-8 produced in S. typhimurium-infected intestinal xenografts. The experiment is classed as in vivo, human. Conditions: S. typhimurium-infected xenografts in the presence of baicalein. The method, then: as §1, with “Xenografts receiving the drug treatment were injected with 1 μM baicalein in a 100 μl volume 2 hours prior to infection with S. typhimurium (in the continued presence of 1 μM baicalein). Xenograft tissue was removed 15 hours after infection, extensively washed, and snap frozen in OCT compound.” left out
(§2) It was further confirmed that treatment of the intestinal xenografts with baicalein inhibited the 12-LO pathway by measuring the amount of 12-S-HETE, a major 12-LO metabolite, released into the lumenal fluid. […] Finally, it was determined that there was no statistical difference in the amount IL-8 produced in the S. typhimurium-infected intestinal xenografts in the absence compared to the presence of baicalein treatment (200±53 pg/mg compared to 225±30 pg/mg, respectively, verses 52±11 pg/mg for uninfected control). […]

In a further experiment the test system is 12-LO pathway. As to the kind of experiment: 12-S-HETE ELISA of lumenal fluid of S. typhimurium-infected xenografts. The note with it: S. typhimurium-infected xenografts with baicalein; average of two lumens. The experiment is classed as in vivo, human. The method, then:
as §1, with “Xenografts receiving the drug treatment were injected with 1 μM baicalein in a 100 μl volume 2 hours prior to infection with S. typhimurium (in the continued presence of 1 μM baicalein). Xenograft tissue was removed 15 hours after infection, extensively washed, and snap frozen in OCT compound.” left out
as §2
A general note: An ELISA detects its analyte on a solid surface through an enzyme-linked reagent.

Experiment [4] concerns PEEC/hepoxilin A3 secretion. Put plainly: Apical PEEC/hepoxilin A3 release from S. typhimurium infected T84 cell monolayers. The experiment is classed as cell-based, human. The note with it: S. typhimurium infected T84 with 12-LO inhibitor. An excerpt:
T84 cell monolayers were infected with S. typhimurium in the absence or presence of the 12-LO enzyme inhibitor and apical supernatants were examined for PEEC bioactivity. […] Moreover, since it had been previously shown that S. typhimurium via its effector SipA initiates an ARF6-dependent lipid-signaling cascade that directs the activation of PKC and release of PEEC, it was further examined if blocking PKC activity (which would occur upstream of 12-LO) also corresponds with a reduction in hepoxilin A3 bioactivity and release, as one would predict.

Regarding `O=c1cc(-c2ccccc2)oc2cc(O)c(O)c(O)c12` [baicalein], the “MRP-2 expression at apical surface of intestinal epithelium” value with MRP-2 is reported as “completely suppressed”. Further, the “P. aeruginosa-induced PMN transepithelial migration with 12-LO inhibitor” value in experiment [1] is recorded as “inhibited”. Also, in experiment [2] (high dose 200 μM i.v. every other day, 2.5 weeks), the rectal prolapse result was “complete recovery of rectal prolapse”. The “health status and rectal prolapse” value in experiment [2] (low dose 2 μM i.v. every other day, 2.5 weeks) is “no improvement of their health status and rectal prolapse”. Further, the “illness (rectal prolapse, diarrhea, weight loss)” value in experiment [2] (therapeutic regimen, after 2 weeks) is “resolved the illness”. The “histopathology / severity of intestinal inflammation” value in experiment [3] is given as “only minimal alterations detectable; also recorded: significantly reduced; also recorded: significantly less severe”. Besides, the IL-8 produced in the experiment with IL-8 production was found to be 225 ± 30 pg/mg. The “12-S-HETE in lumenal fluid” value in the experiment on 12-LO pathway came to 21.5 ng/mL. The “PEEC secretion (bioactivity of apical supernatants)” value in experiment [4] was “significant decrease in PEEC secretion; also recorded: dramatically reduced”.
